Measurements as given in patent EP3355943B1, “METHODS AND SYSTEMS FOR TREATING MEDICAL DEVICES AND FLUIDS” (Ethicon, Inc., priority 2015, dated 2017).
Marks after values point to notes of the source that are not given here.

Assay: Kinetics of removal of LPS with different agitation techniques in presence of stearate salts
Format: biochemical
Set-up: Endotoxin Detected: unit not given here
Conditions: for Percent (%) Removed: vs SRW Baseline; for Endotoxin Detected: Table 18; for Endotoxin Detected / Endotoxin Detected (EU): 5mL SRW, baseline 1,502
Description: 5mL of SRW was added to each of the tubes. Each solution was tested for endotoxin removal after agitation based on with sonication, vortexing, or test tube rolling. Sonication samples were sonicated at each indicated time interval for 30 seconds at a magnitude of 30. Vortex samples were vortexed at each indicated time interval for 30 seconds at 2500 RPM. Rolling samples were constantly rolling at 10 rpm. The samples were tested on the MCS for endotoxin at 1 minute, 20 minutes, 40 minutes, 60 minutes, and 80 minutes.

Molecule: Aluminum Monostearate
- Percent (%) Removed (Rolling, 1 minute): 85.3%
- Percent (%) Removed (Rolling, 20 minutes): 16.1%
- Percent (%) Removed (Rolling, 40 minutes): 17.4%
- Percent (%) Removed (Rolling, 60 minutes): 55.3%
- Percent (%) Removed (Rolling, 80 minutes): 18.8%
- Percent (%) Removed (Sonication, 1 minute): 58.3%
- Percent (%) Removed (Sonication, 20 minutes): 73%
- Percent (%) Removed (Sonication, 40 minutes): 75%
- Percent (%) Removed (Sonication, 60 minutes): 71.1%
- Percent (%) Removed (Sonication, 80 minutes): 80.6%
- Endotoxin Detected (Rolling, 1 minute): 221*
- Endotoxin Detected (Rolling, 20 minutes): 1,260
- Endotoxin Detected (Rolling, 40 minutes): 1,240
- Endotoxin Detected (Rolling, 60 minutes): 672
- Endotoxin Detected (Rolling, 80 minutes): 1,220
- Endotoxin Detected (Sonication, 1 minute): 626
- Endotoxin Detected (Sonication, 20 minutes): 406
- Endotoxin Detected (Sonication, 40 minutes): 375
- Endotoxin Detected (Sonication, 60 minutes): 434
- Endotoxin Detected (Sonication, 80 minutes): 291
- Endotoxin Detected (Vortexing, 1 minute): 817
- Endotoxin Detected (Vortexing, 20 minutes): 849
- Endotoxin Detected (Vortexing, 40 minutes): 786
- Endotoxin Detected (Vortexing, 60 minutes): 801
- Endotoxin Detected (Vortexing, 80 minutes): 757
- Percent (%) Removed (Vortexing, 1 minute): 45.6%
- Percent (%) Removed (Vortexing, 20 minutes): 43.5%
- Percent (%) Removed (Vortexing, 40 minutes): 47.7%
- Percent (%) Removed (Vortexing, 60 minutes): 46.7%
- Percent (%) Removed (Vortexing, 80 minutes): 49.6%

Molecule: CCCCCCCCCCCCCCCCCC(=O)O [Magnesium Stearate]
- Endotoxin Detected (EU) (Rolling, 1 minute): 1,060 EU
- Percent (%) Removed (Rolling, 1 minute): 29.4%
- Endotoxin Detected (EU) (Rolling, 20 minutes): 1,120 EU
- Percent (%) Removed (Rolling, 20 minutes): 25.4%
- Endotoxin Detected (EU) (Rolling, 40 minutes): 1,060 EU
- Percent (%) Removed (Rolling, 40 minutes): 29.4%
- Endotoxin Detected (EU) (Rolling, 60 minutes): 1,120 EU
- Percent (%) Removed (Rolling, 60 minutes): 25.4%
- Endotoxin Detected (EU) (Rolling, 80 minutes): 1,190 EU
- Percent (%) Removed (Rolling, 80 minutes): 20.8%
- Endotoxin Detected (EU) (Sonication, 1 minute): 743 EU
- Percent (%) Removed (Sonication, 1 minute): 50.5%
- Endotoxin Detected (EU) (Sonication, 20 minutes): 716 EU
- Percent (%) Removed (Sonication, 20 minutes): 52.3%
- Endotoxin Detected (EU) (Sonication, 40 minutes): 824 EU
- Percent (%) Removed (Sonication, 40 minutes): 45.1%
- Endotoxin Detected (EU) (Sonication, 60 minutes): 884 EU
- Percent (%) Removed (Sonication, 60 minutes): 41.1%
- Endotoxin Detected (EU) (Sonication, 80 minutes): 703 EU
- Percent (%) Removed (Sonication, 80 minutes): 53.2%
- Endotoxin Detected (EU) (Vortexing, 1 minute): 884 EU
- Percent (%) Removed (Vortexing, 1 minute): 41.1%
- Endotoxin Detected (EU) (Vortexing, 20 minutes): 1,000 EU
- Percent (%) Removed (Vortexing, 20 minutes): 33.4%
- Endotoxin Detected (EU) (Vortexing, 40 minutes): 901 EU
- Percent (%) Removed (Vortexing, 40 minutes): 40%
- Endotoxin Detected (EU) (Vortexing, 60 minutes): 958 EU
- Percent (%) Removed (Vortexing, 60 minutes): 36.2%
- Endotoxin Detected (EU) (Vortexing, 80 minutes): 1,060 EU
- Percent (%) Removed (Vortexing, 80 minutes): 29.4%
